Measurements from patent US20020161194A1, “Cannine androgen receptor” (priority 2000, published 2002).

Test system: canine androgen receptor
Settings: DHT 10^−7 M, 24 hr, control A293S cells lacking the canine AR
From the text: Control plates were transfected with all plasmids except canine AR. […] Luciferase activity was normalized for transfection efficiency using β-galactosidase activity.
Control plates were transfected with all the same plasmids except canine AR. […] Cells were harvested 24 hr after compound addition and analyzed for luciferase activity (Luciferase Assay System, Promega, Madison, Wis.) and β-galactosidase activity (Galacto-Star, Tropix, Inc., Bedford, Mass.). Data is expressed as fold induction of luciferase activity as compared to vehicle, following normalization for transfection efficiency using β-galactosidase activity.

C[C@]12CCC(=O)C[C@@H]1CC[C@@H]1[C@@H]2CC[C@]2(C)[C@@H](O)CC[C@@H]12 [DHT, 5α-androstan-17β-ol-3-one]
induction of luciferase activity compared to vehicle: no induction
